Data as given in patent US20240076297A1, “ADENOSINE A2A AND A2B RECEPTOR DUAL ANTAGONISTS FOR IMMUNO-ONCOLOGY” (Merck Sharp & Dohme LLC, priority 2020, published 2024).

Key:
[1] = target: human A2A adenosine receptor (Homo sapiens (Human), UniProt P29274); assay: A2A binding affinity using radioligand binding, Method (A); conditions: Method (A): filtration radioligand binding, [3H] SCH58261, membranes expressing human A2A
Description: (§1) Method (A) describes the procedure used to measure A2A binding affinity using radioligand binding. Method (B) describes the procedure used to measure A2A binding affinity using SPA technology. The method used to measure A2B binding affinity is also described below. The method used to determine the A2A IC50 value reported for each compound in the table is indicated next to the reported value. The A2B IC50 value measured using the A2B binding affinity assay is shown in the table next to the compound under the corresponding A2A value.
The A2A receptor affinity binding assay measured the amount of binding of a tritiated ligand with high affinity for the A2A adenosine receptor to membranes made from HEK293 or CHO cells recombinantly expressing the human A2A adenosine receptor, in the presence of varying concentrations of a compound of the invention. The data were generated using either filtration binding or a homogenous scintillation proximity assay (SPA).
Method (A): Measurement of A2A Binding Affinity Using Radioligand Binding
148 μL (5 μg/mL) membranes (Perkin Elmer, Cat. No. RBHA2aM400UA) and 2 μL compounds of the invention to be tested (test compound) were transferred to individual wells of a 96-well polypropylene assay plate and incubated for 15 to 30 min at room temperature. [^3H] SCH58261 ((7-(2-phenylethyl)-5-amino-2-(2-furyl)-pyrazolo-[4,3-e]-1,2,4-triazolo[1,5-c]pyrimidine)) was diluted in assay buffer (50 mM Tris pH 7.4, 10 mM MgCl2, 0.005% Tween20) to a concentration of 4 nM and 50 μL transferred to each well of the assay plate. To define total and non-specific binding, wells containing 1% DMSO and 1 μM ZM241385 (Tocris Bioscience, Cat. No. 1036) respectively, were also included. The assay plate was incubated at room temperature for 60 min with agitation. Using a FilterMate Harvester® (Perkin Elmer), the contents of the assay plate were filtered through a UniFilter-96® PEI coated plate (Perkin Elmer Cat. No. 6005274 or 6005277). Filtering was achieved by aspirating the contents of the assay plate for 5 sec, then washing and aspirating the contents three times with ice-cooled wash buffer (50 mM Tris-HCl pH 7.4, 150 mM NaCl) and allowing the vacuum manifold to dry the plate for 30 sec. The filter plate was incubated for at least 1 h at 55° C. and allowed to dry. The bottom of the filter plate was sealed with backing tape. 40 μL Ultima Gold™ (Perkin Elmer, Cat. No. 6013329) was added to each well of the filter plate and the top of the plate was sealed with TopSeal-A PLUS® clear plate seal (Perkin Elmer, Cat. No. 6050185). The plate was incubated for at least 20 min, and then the amount of radioactivity remaining in each well was determined using a TopCount® (Perkin Elmer) scintillation counter. After normalization to total and non-specific binding, the percent effect at each compound concentration was calculated. The plot of percent effect versus the log of compound concentration was analyzed electronically using a 4-parameter logistic fit based on the Levenberg-Marquardt algorithm to generate IC50 values.

[2] = target: human A2B adenosine receptor (Homo sapiens (Human), UniProt P29275); assay: A2B binding affinity, radioligand filtration binding assay; conditions: HEK293 membranes expressing human A2B, tritiated proprietary antagonist
human A2B adenosine receptor, sequence (P29275 whole entry): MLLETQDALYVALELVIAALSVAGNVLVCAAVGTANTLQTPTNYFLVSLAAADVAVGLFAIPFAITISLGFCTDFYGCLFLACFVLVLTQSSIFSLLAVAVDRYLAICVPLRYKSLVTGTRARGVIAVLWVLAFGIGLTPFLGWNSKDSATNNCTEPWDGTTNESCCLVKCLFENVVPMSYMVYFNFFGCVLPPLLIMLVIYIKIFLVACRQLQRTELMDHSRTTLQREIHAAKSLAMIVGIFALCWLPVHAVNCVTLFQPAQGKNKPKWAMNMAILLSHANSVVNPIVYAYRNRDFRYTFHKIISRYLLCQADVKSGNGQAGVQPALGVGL
Description: as §1
Measurement of A2B Binding Affinity
The reported affinity of the compounds of the invention for the human A2B adenosine receptor was determined experimentally using a radioligand filtration binding assay. This assay measures the amount of binding of a tritiated proprietary A2B receptor antagonist, in the presence and absence of a compound of the invention, to membranes made from HEK293 cells recombinantly expressing the human A2B adenosine receptor (Perkin Elmer, Cat. No. ES-013-C).
148 μL (135 μg/mL) membranes and 2 μL test compounds were transferred to individual wells of a 96-well polypropylene assay plate and incubated for 15 to 30 min at room temperature with agitation. Tritiated radioligand was diluted to a concentration of 14 nM in assay buffer (phosphate buffered saline without Magnesium and Calcium, pH 7.4; GE Healthcare Life Sciences, Cat. No. SH30256.01) and then 50 μL of the solution were transferred to each well of the assay plate. To define total and non-specific binding, wells containing 1% DMSO and 20 μM N-ethylcarboxamidoadenosine (Tocris Bioscience, Cat. No. 1691) respectively, were also included. The wells of the assay plate were incubated at room temperature for 60 min with agitation, then filtered using a FilterMate Harvester® (Perkin Elmer) or similar equipment through a UniFilter-96@ PEI coated plate (Perkin Elmer Cat. No. 6005274 or 6005277). Filtering was achieved by aspirating the contents of the assay plate for 5 sec, then washing and aspirating the contents three times with ice-cooled wash buffer (assay buffer supplemented with 0.0025% Brij58) and allowing the vacuum manifold to dry the plate for 30 sec. The filter plate was incubated for at least 1 h at 55° C. and allowed to dry. The bottom of the filter plate was then sealed with backing tape. 40 μL Ultima Gold™ (Perkin Elmer, Cat. No. 6013329) was added to each well of the filter plate and the top of the plate was sealed with TopSeal-A PLUS® clear plate seal (Perkin Elmer, Cat. No. 6050185). The plates were then incubated for at least 20 min, and then the amount of radioactivity remaining in each well was determined using a TopCount® (Perkin Elmer) scintillation counter. After normalization to total and non-specific binding, the percent effect at each compound concentration was calculated. The plot of percent effect versus the log of compound concentration was analyzed electronically using a 4-parameter logistic fit based on the Levenberg-Marquardt algorithm to generate IC50 values.

human A2A adenosine receptor, sequence (P29274 whole entry): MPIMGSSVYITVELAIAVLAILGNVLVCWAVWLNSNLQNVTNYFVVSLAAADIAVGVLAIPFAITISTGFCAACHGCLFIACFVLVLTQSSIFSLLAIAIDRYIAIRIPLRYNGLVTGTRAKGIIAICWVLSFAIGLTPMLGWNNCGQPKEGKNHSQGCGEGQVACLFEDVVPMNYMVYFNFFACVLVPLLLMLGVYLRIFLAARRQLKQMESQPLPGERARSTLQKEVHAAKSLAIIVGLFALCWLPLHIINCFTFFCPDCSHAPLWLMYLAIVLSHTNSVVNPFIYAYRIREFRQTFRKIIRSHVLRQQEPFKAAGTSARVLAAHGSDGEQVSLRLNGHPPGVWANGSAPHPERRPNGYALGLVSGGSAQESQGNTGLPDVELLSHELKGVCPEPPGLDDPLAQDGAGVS

IC50 [1]	IC50 ([2]; value given with marker (A))	IC50 ([2]; value given with marker (B))	Compound
0.8 nM	12 nM	–	COc1cccc2c1nc(N)n1nc(CCC3CCc4c(nnn4C(C)C)C3)nc21 (single isomer, unassigned) [Example 5.2B, (R or S)-2-(2-(1-isopropyl-4,5,6,7-tetrahydro-1H-benzo[d][1,2,3]triazol-5-yl)ethyl)-7-methoxy-[1,2,4]triazolo[1,5-c]quinazolin-5-amine]
0.9 nM	3.1 nM	–	COc1cccc2c1nc(N)n1nc(CCC3CCc4c(nnn4C4CC(F)(F)C4)C3)nc21 (single isomer, unassigned) [Example 5.3B, (R or S)-2-(2-(1-(3,3-difluorocyclobutyl)-4,5,6,7-tetrahydro-1H-benzo[d][1,2,3]triazol-5-yl)ethyl)-7-methoxy-[1,2,4]triazolo-[1,5-c]quinazolin-5-amine]
1.9 nM	9.4 nM	–	COc1cc(F)cc2c1nc(N)n1nc(CCC3CCc4nn(C(C)C)cc4C3)nc21 (single isomer, unassigned) [Example 5.4A, (S or R)-9-fluoro-2-(2-(2-isopropyl-4,5,6,7-tetrahydro-2H-indazol-5-yl)ethyl)-7-methoxy-[1,2,4]triazolo[1,5-c]quinazolin-5-amine]
3.1 nM	139 nM	–	COc1cc(F)cc2c1nc(N)n1nc(CC3CC3c3ccc(C(C)(C)N)cc3)nc21 (single isomer, unassigned) [Example 8.4B, 2-(((1R,2S or 1S,2R)-2-(4-(2-aminopropan-2-yl)phenyl)-cyclopropyl)methyl)-9-fluoro-7-methoxy-[1,2,4]triazolo-[1,5-c]quinazolin-5-amine]
1.3 nM	3.3 nM	–	COc1cccc2c1nc(N)n1nc(CC3CC3c3ccc(C(C)(C)N)cc3)nc21 (single isomer, unassigned) [Example 8.5B, 2-(((IR,2S or 1S,2R)-2-(4-(2-aminopropan-2-yl)phenyl)cyclopropyl)methyl)-7-methoxy-[1,2,4]triazolo[1,5-c]quinazolin-5-amine]
0.7 nM	61.4 nM	–	COc1cc2nc(N)n3nc(CC(C)S(C)(=O)=O)nc3c2cc1F (single isomer, unassigned) [Example 13.2A, (S or R)-9-fluoro-8-methoxy-2-(2-(methylsulfonyl)propyl)-[1,2,4]triazolo[1,5-c]quinazolin-5-amine]
8.1 nM	1050 nM	–	COc1cc2nc(N)n3nc(CC(C)S(C)(=O)=O)nc3c2cc1F (single isomer, unassigned) [Example 13.2B, (R or S)-9-fluoro-8-methoxy-2-(2-(methylsulfonyl)propyl)-[1,2,4]triazolo[1,5-c]quinazolin-5-amine]
0.1 nM	0.6 nM	–	COc1cccc2c1nc(N)n1nc(COCc3ccc(C(O)(C(F)(F)F)C(F)(F)F)cc3)nc21 [Example 4.1, 2-(4-(((5-amino-7-methoxy-[1,2,4]triazolo[1,5-c]quinazolin-2-yl)methoxy)methyl)phenyl)-1,1,1,3,3,3-hexafluoropropan-2-ol]
0.2 nM	9.1 nM	–	COc1cc(F)cc2c1nc(N)n1nc(COCc3ccc(C(C)(C)O)cc3)nc21 [Example 4.14, 2-(4-(((5-amino-9-fluoro-7-methoxy-[1,2,4]triazolo[1,5-c]quinazolin-2-yl)methoxy)methyl)phenyl)propan-2-ol]
0.2 nM	10 nM	–	COc1cccc2c1nc(N)n1nc(COCc3ccc(C(C)(C)O)cc3)nc21 [Example 4.15, 2-(4-(((5-amino-7-methoxy-[1,2,4]triazolo[1,5-c]quinazolin-2-yl)methoxy)methyl)phenyl)propan-2-ol]
0.3 nM	0.9 nM	–	COc1cc(F)cc2c1nc(N)n1nc(COCc3ccc(C(O)(C(F)(F)F)C(F)(F)F)cc3)nc21 [Example 4.16, 2-(4-(((5-amino-9-fluoro-7-methoxy-[1,2,4]triazolo[1,5-c]quinazolin-2-yl)methoxy)methyl)phenyl)-1,1,1,3,3,3-hexafluoropropan-2-ol]
4.8 nM	455 nM	–	COc1cc2nc(N)n3nc(CCS(=O)(=O)c4ccccc4)nc3c2cc1F [Example 6.2, 9-fluoro-8-methoxy-2-(2-(phenylsulfonyl)ethyl)-[1,2,4]triazolo[1,5-c]quinazolin-5-amine]
8.2 nM	535 nM	–	COc1cccc2c1nc(N)n1nc(CCS(C)(=O)=O)nc21 [Example 6.3, 7-methoxy-2-(2-(methylsulfonyl)ethyl)-[1,2,4]-triazolo[1,5-c]quinazolin-5-amine]
222 nM	1900 nM	–	COc1cc2nc(N)n3nc(CCS(C)(=O)=O)nc3c2cc1F [Example 6.4, 9-fluoro-8-methoxy-2-(2-(methylsulfonyl)ethyl)-[1,2,4]triazolo[1,5-c]quinazolin-5-amine]
107 nM	113 nM	–	COc1cc2nc(N)n3nc(CCS(N)(=O)=O)nc3c2cc1F [Example 6.5, 2-(5-amino-9-fluoro-8-methoxy-[1,2,4]triazolo-[1,5-c]quinazolin-2-yl)ethane-1-sulfonamide]
4.2 nM	–	3780 nM	COc1cccc2c1nc(N)n1nc(CS(=O)(=O)c3ccccc3)nc21 [Example 6.6, 7-methoxy-2-((phenylsulfonyl)methyl)-[1,2,4]triazolo-[1,5-c]quinazolin-5-amine]
0.3 nM	973 nM	–	COc1cccc2c1nc(N)n1nc(CCS(=O)(=O)c3ccc(F)cc3)nc21 [Example 13.4, 2-(2-((4-fluorophenyl)sulfonyl)ethyl)-7-methoxy-[1,2,4]triazolo[1,5-c]quinazolin-5-amine]
170 nM	607 nM	–	COc1ccc2c(c1)nc(N)n1nc(CCS(=O)(=O)c3ccc(F)cc3)nc21 [Example 13.7, 2-(2-((4-fluorophenyl)sulfonyl)ethyl)-8-methoxy-[1,2,4]triazolo[1,5-c]quinazolin-5-amine]
76.9 nM	894 nM	–	COc1ccc2c(c1)nc(N)n1nc(CCS(=O)(=O)CC(C)C)nc21 [Example 13.8, 2-(2-(isobutylsulfonyl)ethyl)-8-methoxy-[1,2,4]triazolo-[1,5-c]quinazolin-5-amine]
246 nM	1060 nM	–	CCS(=O)(=O)CCc1nc2c3ccc(OC)cc3nc(N)n2n1 [Example 13.9, 2-(2-(ethylsulfonyl)ethyl)-8-methoxy-[1,2,4]triazolo-[1,5-c]quinazolin-5-amine]
